Results: publication PMC12251305 (Molecules, 2025)
Where two headings read alike, the source gives them in different places.

Legend:
MOR [1] = target: T1, MOR (Homo sapiens, UniProt P35372); assay: [35S]GTPγS functional assay (agonist mode) at MOR; assay type: biochemical
DOR [2] = target: T2, DOR (Homo sapiens, UniProt P41143); assay: Radioligand competition binding at DOR
KOR [3] = target: T3, KOR (Homo sapiens, UniProt P41145); assay: biochemical; assay type: binding
hNPFF2-R = target: T4, hNPFF2-R (Homo sapiens, UniProt Q9Y5X5); assay: Radioligand competition binding at NPFF2-R
T4 construct: expressed in transfected cells; host or cells: CHO cells (membranes)
T4 sequence (Q9Y5X5 whole entry): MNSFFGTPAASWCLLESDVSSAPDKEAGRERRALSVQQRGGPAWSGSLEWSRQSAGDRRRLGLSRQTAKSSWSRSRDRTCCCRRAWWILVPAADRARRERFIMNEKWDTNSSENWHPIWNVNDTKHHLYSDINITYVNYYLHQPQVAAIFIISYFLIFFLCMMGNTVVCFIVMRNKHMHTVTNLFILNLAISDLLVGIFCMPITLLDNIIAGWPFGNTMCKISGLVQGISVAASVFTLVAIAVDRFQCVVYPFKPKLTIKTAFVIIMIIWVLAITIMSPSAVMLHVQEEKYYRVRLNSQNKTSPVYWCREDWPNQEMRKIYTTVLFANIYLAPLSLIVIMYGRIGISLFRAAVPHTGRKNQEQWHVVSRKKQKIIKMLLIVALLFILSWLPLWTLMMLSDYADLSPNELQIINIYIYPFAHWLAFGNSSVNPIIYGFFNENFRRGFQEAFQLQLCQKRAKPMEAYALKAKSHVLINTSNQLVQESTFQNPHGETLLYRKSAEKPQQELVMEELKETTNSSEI

MOR [4] = target: T1, MOR; assay: Radioligand competition binding at MOR
hNPFF1-R = target: T5, hNPFF1-R (Homo sapiens, UniProt Q9GZQ6); assay: Radioligand competition binding at NPFF1-R
T5 construct: expressed in transfected cells; host or cells: CHO cells
T5 sequence (Q9GZQ6 whole entry): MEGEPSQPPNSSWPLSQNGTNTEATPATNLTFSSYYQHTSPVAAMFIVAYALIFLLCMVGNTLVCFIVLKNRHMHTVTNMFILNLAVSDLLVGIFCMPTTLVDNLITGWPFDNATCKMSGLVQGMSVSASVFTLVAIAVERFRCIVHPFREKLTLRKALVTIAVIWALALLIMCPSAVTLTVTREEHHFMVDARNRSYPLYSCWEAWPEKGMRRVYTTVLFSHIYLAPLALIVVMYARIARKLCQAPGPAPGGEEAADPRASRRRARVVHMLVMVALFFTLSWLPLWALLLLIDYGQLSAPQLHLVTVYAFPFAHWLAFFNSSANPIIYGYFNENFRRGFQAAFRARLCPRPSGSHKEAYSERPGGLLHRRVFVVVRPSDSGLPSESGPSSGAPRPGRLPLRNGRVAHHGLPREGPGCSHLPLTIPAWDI

C57BL/6J mice [5] = assay: Antinociception assay (55 °C warm water tail withdrawal assay); assay type: in vivo, mouse; details: 30 nmol i.c.v., 55 °C
DOR [6] = target: T2, DOR; assay: [35S]GTPγS functional assay (agonist mode) at DOR; assay type: biochemical
KOR [7] = target: T3, KOR; assay: [35S]GTPγS functional assay (agonist mode) at KOR; assay type: biochemical
C57BL/6J mice [8] = assay: Anti-hyperalgesia assay (48 °C warm water tail withdrawal assay, NPFF-induced hyperalgesia); assay type: in vivo, mouse; details: 30 nmol i.c.v. two hours before NPFF 30 nmol i.c.v.
C57BL/6J mice [9] = assay: Acute antinociceptive tolerance assay (55 °C warm water tail withdrawal); assay type: in vivo, mouse; details: i.c.v.
C57BL/6J mice [10] = assay: Locomotor testing (CLAMS); assay type: in vivo, mouse; details: 100 nmol i.c.v., 90 min
C57BL/6J mice [11] = assay: Respiration testing (CLAMS); assay type: in vivo, mouse; details: 100 nmol i.c.v., 90 min
C57BL/6J mice [12] = assay: Excreta assay (intestinal transit); details: 90 min
[13] = GTPγS Mu Agonist Functional Assay EC50 (Figure S2 curve fit)
[14] = read-out: Receptor Binding, Ki ± SEM DOR
[15] = [3H]EYF, transfected CHO cell membranes, read-out: Receptor Binding, Ki ± SEM NPFF2-R
[16] = read-out: Receptor Binding, Ki ± SEM NPFF1-R
[17] = [35S]GTPγS DOR EC50 ± SEM, agonist mode, standard DPDPE
[18] = GTPγS Kappa Agonist Functional Assay EC50 (Figure S2 curve fit), Figure S2, axis Log(M), U69,593 run beside each compound
[19] = [35S]GTPγS KOR EC50 ± SEM, agonist mode, standard U-69,593
[20] = GTPγS Delta Agonist Functional Assay EC50 (Figure S2 curve fit), Figure S2, axis Log(M), DPDPE run beside each compound

T3 sequence (P41145 whole entry): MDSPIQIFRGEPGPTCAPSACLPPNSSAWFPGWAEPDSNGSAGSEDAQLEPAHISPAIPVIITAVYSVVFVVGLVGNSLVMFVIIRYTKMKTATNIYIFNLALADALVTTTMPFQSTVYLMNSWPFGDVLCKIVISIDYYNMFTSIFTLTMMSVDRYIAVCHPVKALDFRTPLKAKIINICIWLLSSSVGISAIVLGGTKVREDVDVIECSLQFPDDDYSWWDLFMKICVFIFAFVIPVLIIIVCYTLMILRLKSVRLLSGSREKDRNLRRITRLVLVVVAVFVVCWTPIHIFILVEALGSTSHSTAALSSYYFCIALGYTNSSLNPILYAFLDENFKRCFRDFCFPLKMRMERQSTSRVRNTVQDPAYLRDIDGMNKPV
T2 sequence (P41143 whole entry): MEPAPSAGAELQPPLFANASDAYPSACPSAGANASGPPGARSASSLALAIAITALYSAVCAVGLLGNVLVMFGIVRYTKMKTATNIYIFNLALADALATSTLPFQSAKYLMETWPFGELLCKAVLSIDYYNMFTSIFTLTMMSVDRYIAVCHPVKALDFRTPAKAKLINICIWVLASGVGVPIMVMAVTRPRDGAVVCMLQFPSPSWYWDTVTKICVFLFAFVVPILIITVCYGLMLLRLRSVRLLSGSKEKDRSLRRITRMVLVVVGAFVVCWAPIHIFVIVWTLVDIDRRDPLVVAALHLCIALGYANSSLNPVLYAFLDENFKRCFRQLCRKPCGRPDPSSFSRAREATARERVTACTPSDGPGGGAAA
T1 sequence (P35372 whole entry): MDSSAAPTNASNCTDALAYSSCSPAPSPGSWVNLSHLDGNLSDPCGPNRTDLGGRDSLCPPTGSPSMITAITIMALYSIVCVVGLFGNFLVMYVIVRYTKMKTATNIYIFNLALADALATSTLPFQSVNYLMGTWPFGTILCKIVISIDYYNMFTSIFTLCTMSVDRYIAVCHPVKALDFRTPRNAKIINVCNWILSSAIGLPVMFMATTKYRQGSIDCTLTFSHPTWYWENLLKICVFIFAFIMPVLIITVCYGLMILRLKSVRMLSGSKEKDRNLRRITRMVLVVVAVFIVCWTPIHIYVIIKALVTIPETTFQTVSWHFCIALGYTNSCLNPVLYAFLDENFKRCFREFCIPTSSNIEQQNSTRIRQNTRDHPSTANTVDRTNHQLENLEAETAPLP

SMILES	EC50 (MOR [1]; [35S]GTPγS MOR EC50 ± SEM) [nM]	Ki (DOR [2]; [14]) [nM]	Ki (KOR [3]) [nM]	Ki (hNPFF2-R; [15]) [nM]	Ki (MOR [4]) [nM]	Ki (hNPFF1-R; [16]) [nM]	antinociceptive activity over time (screening) (C57BL/6J mice [5])	EC50 (DOR [6]; [17]) [M]	EC50 (KOR [7]; [18]) [M]	EC50 (KOR [7]; [19]) [M]	prevention of NPFF-induced hyperalgesia (screening) (C57BL/6J mice [8])	EC50 (DOR [6]; [20]) [M]	further results
N=C(N)Nc1cccc(C(=C2CCN(Cc3ccccc3)CC2)c2cccc(O)c2)c1 [Compound 13a, 1-(3-((1-Benzylpiperidin-4-ylidene)(3-hydroxyphenyl)methyl)phenyl)guanidine]	28.3 ± 2.5	0.481 ± 0.192	2.82 ± 0.39	7080 ± 1260	5.06 ± 0.21	2180 ± 280	did not show statistically significant antinociceptive activity	2.41e-08 ± 2.5e-09	4.18e-08	4.18e-08 ± 4.9e-09	more moderate, yet still statistically significant, effect		EC50 (MOR [1]; [13]): 28.3 nM
N=C(N)Nc1ccc(C(=C2CCN(Cc3ccccc3)CC2)c2cccc(O)c2)cc1 [Compound 13b, 1-(4-((1-Benzylpiperidin-4-ylidene)(3-hydroxyphenyl)methyl)phenyl)guanidine]	1440 ± 226	1.67 ± 0.61	30.6 ± 1.1	6020 ± 1150	56.2 ± 7.5	605 ± 136	lacked any marked analgesic activity	9.62e-09 ± 1.27e-09	2.68e-07	2.68e-07 ± 3.19e-08	greater anti-NPFF activity	9.61e-09	
N=C(N)Nc1cccc(C(=C2CCN(Cc3ccccc3)CC2)c2ccc(O)cc2)c1 [Compound 14a, 1-(3-((1-Benzylpiperidin-4-ylidene)(4-hydroxyphenyl)methyl)phenyl)guanidine]	420 ± 54.5	2.33 ± 0.6	32.3 ± 3.5	> 10000	33.5 ± 4.7	1720 ± 308	did not produce statistically significant antinociception	4.55e-07 ± 6.17e-08		4.82e-07 ± 8.16e-08	greater anti-NPFF activity	4.55e-07	EC50 (MOR [1]; [13]): 420 nM; reduction of affinity at DOR relative to 13a (DOR [2]; hydroxyl shifted from 3′- to 4′- position): 4 fold; reduction of affinity at KOR relative to 13a (KOR [3]): 11 fold
N=C(N)Nc1ccc(C(=C2CCN(Cc3ccccc3)CC2)c2ccc(O)cc2)cc1 [Compound 14b, 1-(4-((1-Benzylpiperidin-4-ylidene)(4-hydroxyphenyl)methyl)phenyl)guanidine]			56.6 ± 3.8				displayed antinociception in vivo second only to 22b		1.36e-07	1.36e-07 ± 2.37e-08	more moderate, yet still statistically significant, effect		EC50 (MOR [1]): 18600 nM; Ki (DOR [2]): 6.46 ± 1.11 nM; Ki (hNPFF2-R): 4820 ± 1010 nM; Ki (MOR [4]; read-out: Receptor Binding, Ki ± SEM MOR): 313 ± 11 nM; Ki (hNPFF1-R): 1980 ± 288 nM; EC50 (DOR [6]; Figure S2, axis Log(M), DPDPE run beside each compound, read-out: GTPγS Delta Agonist Functional Assay EC50 (Figure S2 curve fit)): 2.27e-07 M; EC50 (DOR [6]; agonist mode, standard DPDPE, read-out: [35S]GTPγS DOR EC50 ± SEM): 2.27e-07 ± 1.25e-08 M
N=C(N)Nc1cccc(C(=C2CCN(Cc3ccccc3)CC2)c2ccccc2)c1 [Compound 22a, 1-(3-((1-Benzylpiperidin-4-ylidene)(phenyl)methyl)phenyl)guanidine]	102 ± 21.3	3.37 ± 0.59	91 ± 9.9	2570 ± 423	6.45 ± 1.23	1400 ± 61	displayed antinociception in vivo second only to 22b	2.56e-07 ± 2.49e-08		2.55e-07 ± 5.77e-08	more moderate, yet still statistically significant, effect	2.56e-07	
CC(C)C[C@H](NC(=O)[C@@H](N)Cc1ccccc1)C(=O)N[C@@H](Cc1ccccc1)C(=O)N[C@@H](CCC(N)=O)C(=O)N1CCC[C@H]1C(=O)N[C@@H](CCC(N)=O)C(=O)N[C@@H](CCCN=C(N)N)C(=O)N[C@@H](Cc1ccccc1)C(N)=O [NPFF, neuropeptide FF, reference compound]			> 10000		> 10000								Ki (DOR [2]): > 10000 nM
CN1CC[C@]23c4c5ccc(O)c4O[C@H]2[C@@H](O)C=C[C@H]3[C@H]1C5 [morphine, reference compound]													antinociception ED50 (95% CI), single administration (C57BL/6J mice [9]; 55 °C, baseline dose response): 2.35 (1.13–5.03) nmol; antinociception ED50 (95% CI), second administration (C57BL/6J mice [9]; given 8 h after a first dose (morphine 3 nmol, 22b 8.7 nmol), 55 °C): 22.5 (8.48–61.9) nmol; rightward shift of antinociceptive dose response (acute tolerance) (C57BL/6J mice [9]; second administration 8 h after first): 9.6 fold; effect on ambulation (spontaneous locomotor activity) (C57BL/6J mice [10]): increased ambulation; effect on respiration rate (C57BL/6J mice [11]): significant respiratory depression; number of excreted fecal boli (C57BL/6J mice [12]; 30 nmol i.c.v.): 1.8 ± 0.8 boli; number of excreted fecal boli (C57BL/6J mice [12]; 100 nmol i.c.v.): 1.5 ± 0.6 boli
